Source: PubChem BioAssay AID330 (DTP/NCI, 2004)
Inconclusive results and toxic doses are left out. How the source made its calls: active means survival T/C of 150% or more; inactive means T/C below 125% in these data.

System: P388 leukemia ip, CD2F1 mice, survival T/C
Assay: NCI In Vivo Anticancer Drug Screen. Data for tumor model P388 Leukemia (intraperitoneal) in CD2F1 (CDF1) mice
Settings: endpoint: median survival time, higher = longer survival
Procedure, shortened: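 Mice carrying the transplanted tumor received test compound or vehicle. Survival was recorded in each group, and the value is the treated-group measurement divided by that of the vehicle-treated control group.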

[1] = dose: 6.25 mg/kg/injection, schedule: Q01DX009 (ip), vehicle: saline
[2] = dose: 12.5 mg/kg/injection, schedule: Q01DX009 (ip), vehicle: saline
[3] = dose: 25.0 mg/kg/injection, schedule: Q01DX009 (ip), vehicle: saline
[4] = dose: 50.0 mg/kg/injection, schedule: Q01DX009 (ip), vehicle: saline
[5] = dose: 100.0 mg/kg/injection, schedule: Q01DX009 (ip), vehicle: saline with Tween-80
[6] = dose: 200.0 mg/kg/injection, schedule: Q01DX009 (ip), vehicle: saline with Tween-80
[7] = dose: 400.0 mg/kg/injection, schedule: Q01DX009 (ip), vehicle: saline with Tween-80
[8] = dose: 60.0 mg/kg/injection, schedule: Q01DX005 (ip), vehicle: saline with Tween-80
[9] = dose: 120.0 mg/kg/injection, schedule: Q01DX005 (ip), vehicle: saline with Tween-80
[10] = dose: 240.0 mg/kg/injection, schedule: Q01DX005 (ip), vehicle: saline with Tween-80
[11] = dose: 50.0 mg/kg/injection, schedule: Q01DX005 (ip), vehicle: Klucel (hydroxypropylcellulose) (HPC)
[12] = dose: 100.0 mg/kg/injection, schedule: Q01DX005 (ip), vehicle: Klucel (hydroxypropylcellulose) (HPC)
[13] = dose: 200.0 mg/kg/injection, schedule: Q01DX005 (ip), vehicle: Klucel (hydroxypropylcellulose) (HPC)
[14] = dose: 50.0 mg/kg/injection, schedule: Q01DX009 (ip), vehicle: Klucel (hydroxypropylcellulose) (HPC)
[15] = dose: 100.0 mg/kg/injection, schedule: Q01DX009 (ip), vehicle: Klucel (hydroxypropylcellulose) (HPC)
[16] = dose: 200.0 mg/kg/injection, schedule: Q01DX009 (ip), vehicle: Klucel (hydroxypropylcellulose) (HPC)
[17] = dose: 50.0 mg/kg/injection, schedule: Q01DX005 (ip), vehicle: saline

Measured: T/C

O=c1[nH]c2ccccc2c2cc3ccccc3cc12
inactive: [1] 94 % of control | [2] 86 % of control | [3] 99 % of control | [4] 96 % of control | [5] 89 % of control | [6] 89 % of control | [7] 89 % of control

CCOC(=O)Nn1c(C)c(C(N)=O)c(C(=O)OC)c1C
inactive: [8] 100 % of control | [9] 96 % of control | [10] 103 % of control

CC/S(=N\S(=O)(=O)c1ccc(C)cc1)c1cccc[n+]1[O-] (stereo not given)
inactive: [8] 100 % of control | [9] 110 % of control | [10] 100 % of control

[NH2-].[NH2-].[NH2-].[NH2-].[NH2-].[NH2-].[Ni]
inactive: dose: 6.25 mg/kg/injection, schedule: Q01DX001 (ip), vehicle: saline 97 % of control | dose: 12.5 mg/kg/injection, schedule: Q01DX001 (ip), vehicle: saline 100 % of control | dose: 25.0 mg/kg/injection, schedule: Q01DX001 (ip), vehicle: saline 98 % of control

Cc1ccc(NC2=C([n+]3ccc(C)cc3)C(=O)c3ccccc3C2=O)cc1
inactive: dose: 12.5 mg/kg/injection, schedule: Q01DX005 (ip), vehicle: saline with Tween-80 100 % of control | dose: 25.0 mg/kg/injection, schedule: Q01DX005 (ip), vehicle: saline with Tween-80 109 % of control | dose: 50.0 mg/kg/injection, schedule: Q01DX005 (ip), vehicle: saline with Tween-80 124 % of control

C(=C\C1N=C1c1ccccc1)/c1ccc2ccccc2c1 (stereo not given)
inactive: dose: 50.0 mg/kg/injection, schedule: Q04DX002 (ip), vehicle: suspension in saline 99 % of control | dose: 100.0 mg/kg/injection, schedule: Q04DX002 (ip), vehicle: suspension in saline 97 % of control | dose: 200.0 mg/kg/injection, schedule: Q04DX002 (ip), vehicle: suspension in saline 99 % of control

CC1OC(=O)C2=CCC(O)C(O)C2C1NC(=O)OCc1ccccc1 (stereo not given)
inactive: dose: 100.0 mg/kg/injection, schedule: Q01DX001 (ip), vehicle: saline with Tween-80 108 % of control | dose: 200.0 mg/kg/injection, schedule: Q01DX001 (ip), vehicle: saline with Tween-80 108 % of control | dose: 400.0 mg/kg/injection, schedule: Q01DX001 (ip), vehicle: saline with Tween-80 101 % of control

CCN(CC)C1=Nc2ccccc2N(c2ccccc2)C(N2CCCCC2)=C1
inactive: dose: 12.5 mg/kg/injection, schedule: Q04DX002 (ip), vehicle: Klucel (hydroxypropylcellulose) (HPC) 99 % of control | dose: 25.0 mg/kg/injection, schedule: Q04DX002 (ip), vehicle: Klucel (hydroxypropylcellulose) (HPC) 99 % of control | dose: 50.0 mg/kg/injection, schedule: Q04DX002 (ip), vehicle: Klucel (hydroxypropylcellulose) (HPC) 101 % of control

O=C(CN=Cc1ccc(Cl)cc1Cl)NNC(=O)c1ccc(Cl)cc1Cl
inactive: [11] 92 % of control | [12] 96 % of control | [13] 92 % of control

CN(C(=O)c1cc2c(cc1Br)OCO2)c1cccc2ccccc12
inactive: dose: 12.5 mg/kg/injection, schedule: Q01DX009 (ip), vehicle: distilled water + Tween-80 98 % of control | dose: 25.0 mg/kg/injection, schedule: Q01DX009 (ip), vehicle: distilled water + Tween-80 103 % of control | dose: 50.0 mg/kg/injection, schedule: Q01DX009 (ip), vehicle: distilled water + Tween-80 103 % of control | dose: 100.0 mg/kg/injection, schedule: Q01DX009 (ip), vehicle: distilled water + Tween-80 95 % of control | dose: 200.0 mg/kg/injection, schedule: Q01DX009 (ip), vehicle: distilled water + Tween-80 100 % of control

C(=N\Nc1nc2ccccc2s1)/c1cccs1
inactive: [4] 100 % of control | dose: 100.0 mg/kg/injection, schedule: Q01DX009 (ip), vehicle: saline 87 % of control | dose: 200.0 mg/kg/injection, schedule: Q01DX009 (ip), vehicle: saline 106 % of control

O=P(C(=S)Nc1ccc(S(=O)(=O)N2CCCCC2)cc1)(c1ccccc1)c1ccccc1
inactive: [14] 97 % of control | [15] 95 % of control | [16] 98 % of control

Nc1nc(N)n(N)c(=S)n1
inactive: dose: 50.0 mg/kg/injection, schedule: Q04DX003 (ip), vehicle: saline with Tween-80 96 % of control | dose: 100.0 mg/kg/injection, schedule: Q04DX003 (ip), vehicle: saline with Tween-80 106 % of control

C=CCn1c(SC)nc2c(c1=O)CCCC2
inactive: [8] 108 % of control | [9] 97 % of control

O=NNc1ccc(Cl)nc1
inactive: dose: 3.12 mg/kg/injection, schedule: Q01DX009 (ip), vehicle: saline 109 % of control | [1] 110 % of control | [2] 106 % of control | [3] 106 % of control | [4] 107 % of control

O=C(COc1ccc(Cl)cc1Cl)N1CCNC1=O
inactive: [14] 103 % of control | [15] 98 % of control | [16] 97 % of control

CCOC(=O)C(CSC(c1ccccc1)(c1ccccc1)c1ccccc1)NC(=O)c1csc(CCNC(=O)c2ccccc2)n1 (stereo not given)
inactive: dose: 4.0 mg/kg/injection, schedule: Q01DX009 (ip), vehicle: other 100 % of control | dose: 8.0 mg/kg/injection, schedule: Q01DX009 (ip), vehicle: other 99 % of control | dose: 16.0 mg/kg/injection, schedule: Q01DX009 (ip), vehicle: other 91 % of control | dose: 32.0 mg/kg/injection, schedule: Q01DX009 (ip), vehicle: other 89 % of control | dose: 62.5 mg/kg/injection, schedule: Q01DX009 (ip), vehicle: other 113 % of control | dose: 64.0 mg/kg/injection, schedule: Q01DX009 (ip), vehicle: other 89 % of control | dose: 125.0 mg/kg/injection, schedule: Q01DX009 (ip), vehicle: other 108 % of control | dose: 250.0 mg/kg/injection, schedule: Q01DX009 (ip), vehicle: other 108 % of control

CCOC(=O)N1CCN(CCCCCOc2ccccc2C2CCCCC2)CC1
inactive: dose: 50.0 mg/kg/injection, schedule: Q01DX009 (ip), vehicle: saline with Tween-80 110 % of control | [5] 108 % of control | [6] 124 % of control | [7] 115 % of control

CC1=CCN(C)C(C#N)C1 (stereo not given)
inactive: dose: 12.5 mg/kg/injection, schedule: Q01DX005 (ip), vehicle: saline 97 % of control | dose: 25.0 mg/kg/injection, schedule: Q01DX005 (ip), vehicle: saline 105 % of control | [17] 105 % of control

O=C(OC(CCc1ccccc1)C(=O)O)c1ccc([N+](=O)[O-])cc1 (stereo not given)
inactive: dose: 75.0 mg/kg/injection, schedule: Q01DX001 (ip), vehicle: Klucel (hydroxypropylcellulose) (HPC) 111 % of control | dose: 150.0 mg/kg/injection, schedule: Q01DX001 (ip), vehicle: Klucel (hydroxypropylcellulose) (HPC) 112 % of control | dose: 300.0 mg/kg/injection, schedule: Q01DX001 (ip), vehicle: Klucel (hydroxypropylcellulose) (HPC) 97 % of control

O=C(O)CN(CCN(CC(=O)O)CC(=O)O)CCN(CC(=O)O)CC(=O)O
inactive: [11] 103 % of control | [12] 108 % of control | [15] 91 % of control | [13] 103 % of control | [16] 94 % of control

CCC1C(=O)OCC1Cc1cncn1C (stereo not given)
inactive: [17] 100 % of control | dose: 100.0 mg/kg/injection, schedule: Q01DX005 (ip), vehicle: saline 94 % of control | dose: 200.0 mg/kg/injection, schedule: Q01DX005 (ip), vehicle: saline 98 % of control
